Source: patent publication US8329230B2, “Natural hair care composition, methods for obtaining the same and use thereof” (priority 2004, dated 2012)
Entries after “also recorded” stand apart in the source; their conditions may differ.

Experiments:
[1] = test system: Cladosporium cladosporioides (Fres.) de Vries; conditions: cited from earlier work
[2] = test system: chemotherapy induced alopecia; assay: Chemotherapeutic agent (cyclophosphamide) induced alopecia model, topical extracts; format: in vivo, rat pups of Sprague-Dawley strain
Description: Eight-day old rat pups of Sprague-Dawley strain of either sex, bred in Experimental Animal Facility of R&D Center, The Himalaya Drug Company, were used for the experiment. The animals were maintained at 22±3° C., 50-60% of humidity, 12 hours light and dark cycle.
Screening of Extracts in Chemotherapeutic Agent Induced Alopecia Model:
Three Groups of 8 rat pups are used. Group I served normal control and received saline at a dose of 10 ml/kg i.p. Group II & Group III animals received Cyclophosphamide (CP) at a dose of 50 mg/kg i.p. as a single dose. Test extracts PCPB-1 to PCPB-10, PCPB-1P to PCPB-10P and PCPB-1S to PCPB-10S were applied topically to Group III animals everyday from day one after Cyclophosphamide administration till the end of the study. On the 12th day of post Cyclophosphamide injection, the animals were graded for alopecia as given below.
2+—Moderately severe alopecia with more than 50% hair loss
3+—Severe and total alopecia.

[3] = test system: murine hair epithelial cells; conditions: Phytother. Res. 15, 331-36, 2001; cited from earlier work
[4] = test system: male pattern baldness; conditions: Phytother. Res. 15, 331-36, 2001; cited from earlier work
[5] = test system: heart rate; conditions: oral; cited from earlier work

For COc1ccc2c(c1)O[C@H]1c3ccc(O)cc3OC[C@@H]21 [(−)-medicarpin, (−)-3-hydroxy-9-methoxy ptero carpan], the anti-fungal activity [1] is given as “active”.
With O=P1(N(CCCl)CCCl)NCCCO1 (stereo not drawn) [CP, Cyclophosphamide] the “hair growth, stereosome photograph” value ([2]; figure legends FIGS. 2, 3) was “scanty hairs”, the “alopecia, appearance of rat pups” value ([2]; figure legends FIGS. 5, 6) was “high degree of alopecia” and the “hair follicles, photomicrograph of skin section” value ([2]; figure legends FIGS. 8-10) was “degenerating hair follicles with decrease in their numbers; also recorded: degenerating hair follicles with epidermal down growth”. The “alopecia grade, Mean SEM” value ([2]; mean ± SEM of 8 rat pups, graded 0 to 3+ on 12th day post CP) was 2.88 ± 0.13.
In the case of COc1ccc2c(c1)OC1c3ccc(OC(C)=O)cc3OCC21 (single isomer, unassigned; (-)) [(−)-medicarpin acetate], the anti-fungal activity [1] is listed as “active”.
In the case of Oc1cc(O)c2c(c1)O[C@H](c1ccc(O)c(O)c1)[C@H](O)[C@H]2c1c(O)cc(O)c2c1O[C@H](c1ccc(O)c(O)c1)[C@H](O)C2 [Procyanidin B-2], the “growth promoting effect on hair epithelial cells” value [3] is listed as “acts as growth promoting factor” and the “potential as cure for male pattern baldness” value [4] is listed as “showed potential as promising cure”.
For Nc1cc(N2CCCCC2)nc(N)[n+]1[O-] [Minoxidil], the “effect on heart rate” value [5] is listed as “reported to affect heart rate in some patients”.
